Where two headings read alike, the source gives them in different places.
What was measured:
Type in all cases: cell-based
[1] = tested on: COLO205 cell line; experiment: MTT assay, encorafenib + binimetinib with retinoid; details: Test Example 6; concentration-dependent
Protocol: (§1) RKO cells were seeded on a 96-well plate with the number of cells of 1.5×10^3 cells/well, CO115 cells were seeded on a 96-well plate with the number of cells of 2.5×10^3 cells/well, and HT29 cells and WiDR cells were respectively seeded on 96-well plates with the number of cells of 6×10^3 cells/well. After incubation for about 24 hours until the cell density reached 40% to 60%, the drug was administered. After incubation at 37° C. for 72 hours, the MTT assay was performed using Cell Counting Kit-8 (Dojindo Laboratories, Kumamoto, Japan). To each well was added 10 μl of Cell Counting Kit-8 solution, the plates were placed in a culture vessel at 5% CO2 and 37° C. for 120 minutes to perform a color reaction, and then the absorbance at 450 nm was measured and evaluated with a microplate reader SpectraMax M2e (Molecular Devices, Sunnyvale, CA, USA). Cells administered with 0.1% DMSO were used as a control. The above was performed three or more times as independent experiments.
(§2) As the compounds for acting on a retinoid receptor, retinol, tamibarotene, and bexarotene among the retinoids were used. As the cell lines, the colorectal cancer cell lines including RKO, HT29, CO115, WiDR, COLO205, and LIM2405 described above were used. As the BRAF inhibitor and the MEK inhibitor to be used in combination, a component (EB) obtained by mixing encorafenib and binimetinib in equal amounts was used as in Test Example 2.

[2] = tested on: LIM2405 cell line; experiment: MTT assay, encorafenib + binimetinib with retinoid; details: Test Example 6; concentration-dependent
Protocol: as §1, §2

[3] = tested on: CO115 (BRAF V600E-mutated colorectal cancer cell line); experiment: MTT assay, encorafenib + binimetinib with retinoid
Protocol: as §1
(§3) In various kinds of colorectal cancer cell lines, the inhibition effect of a BRAF inhibitor (encorafenib) and an MEK inhibitor (binimetinib) for the viability of cells and the enhancement by ATRA were examined. […] The horizontal axis indicates component concentrations of encorafenib and binimetinib in a range of 0 μM to 10 μM, and the vertical axis indicates the cell viability when 0 μM, 1.0 μM, or 10 μM (each bar graph) of ATRA was administered. As shown in the drawing, encorafenib and binimetinib were used in an equal molar concentration.
as §2, with “acting and” for “acting”, “tamibarotene,” for “tamibarotene, and”, “above-described” for “colorectal cancer”, “HT29,” for “HT29, CO115, WiDR, COLO205,”, “CO115” for “LIM2405 described above”
as §2

[4] = tested on: RKO (BRAF V600E-mutated colorectal cancer cell line); experiment: MTT assay, encorafenib + binimetinib with retinoid
Protocol: as §1, §3
as §2, with “acting and” for “acting”, “tamibarotene,” for “tamibarotene, and”, “above-described” for “colorectal cancer”, “HT29,” for “HT29, CO115, WiDR, COLO205,”, “CO115” for “LIM2405 described above”
as §2

[5] = tested on: HT29 (BRAF V600E-mutated colorectal cancer cell line); experiment: MTT assay, encorafenib + binimetinib with retinoid
Protocol: as §1, §3
as §2, with “acting and” for “acting”, “tamibarotene,” for “tamibarotene, and”, “above-described” for “colorectal cancer”, “HT29,” for “HT29, CO115, WiDR, COLO205,”, “CO115” for “LIM2405 described above”
as §2

[6] = tested on: WiDR (BRAF V600E-mutated colorectal cancer cell line); experiment: MTT assay, encorafenib + binimetinib with retinoid; details: Test Example 6; concentration-dependent
Protocol: as §1, §3, §2

[7] = tested on: RKO cells, sensitive strain; experiment: Viability of sensitive strain with encorafenib and ATRA; details: for IC50: Homo sapiens, RKO, Sensitive Strain, read-out: IC50 (50% inhibition concentration)
[8] = tested on: RKO cells, encorafenib/cetuximab resistant strain; experiment: Viability of encorafenib/cetuximab resistant strain with encorafenib and ATRA; details: for IC50: Homo sapiens, RKO, Resistant Strain, read-out: IC50 (50% inhibition concentration)
Protocol: Encorafenib/cetuximab resistant strains were constructed, and the inhibitor enhancing effect of ATRA was examined for the resistant strains.
For the construction of the resistant strains, the above-described RKO cells were seeded in 15 mm dishes and a group in which the BRAF inhibitor Encorafenib and an anti-EGFR antibody Cetuximab were administered and a group in which the BRAF inhibitor Encorafenib, the MEK inhibitor Binimetinib, and the anti-EGFR antibody Cetuximab were administered were prepared.
The vertical axis represents the viability (ratio), and the horizontal axis represents the administration amount of encorafenib.

[9] = Test Example 3, EB 0.1 μM, retinol 30 μM or tamibarotene 30 μM
[10] = Test Example 6, concentration-dependent, smaller concentrations than Test Example 3
[11] = Test Example 3, EB 0.1 μM, retinol 30 μM, tamibarotene 10 μM or bexarotene 10 μM
[12] = Test Example 3, EB 0.01 μM, retinol, tamibarotene or bexarotene 1 μM

SMILES	cell viability on further adding a retinoid to EB [1]	cell viability on further adding a retinoid to EB [2]	cell viability on further adding a retinoid to EB [3, 9]	cell viability on further adding a retinoid to EB [3, 10]	cell viability on further adding a retinoid to EB [4, 11]	cell viability on further adding a retinoid to EB [4, 10]	cell viability on further adding a retinoid to EB [5, 12]	cell viability on further adding a retinoid to EB [5, 10]	cell viability on further adding a retinoid to EB [6]	IC50 ([7]; ATRA 0 μM)	IC50 ([7]; ATRA 1 μM)	viability (ratio) ([7]; sensitive strain (S), ATRA 1 μM, encorafenib 0 to 10 μM)	viability (ratio) ([7]; sensitive strain, ATRA not administered)	IC50 ([8]; ATRA 0 μM)	IC50 ([8]; ATRA 1 μM)	viability (ratio) ([8]; resistant strain (R), ATRA 1 μM)
CC1=C(/C=C/C(C)=C/C=C/C(C)=C/CO)C(C)(C)CCC1 [retinol]	greatly decreased	greatly decreased	greatly reduced	greatly decreased	greatly reduced	greatly decreased	greatly reduced	greatly decreased	greatly decreased							
C=C(c1ccc(C(=O)O)cc1)c1cc2c(cc1C)C(C)(C)CCC2(C)C [bexarotene]	greatly decreased	greatly decreased		greatly decreased	greatly reduced	greatly decreased	greatly reduced	greatly decreased	greatly decreased							
CC1(C)CCC(C)(C)c2cc(NC(=O)c3ccc(C(=O)O)cc3)ccc21 [tamibarotene]	greatly decreased	greatly decreased	greatly reduced	greatly decreased	greatly reduced	greatly decreased	greatly reduced	greatly decreased	greatly decreased							
COC(=O)N[C@@H](C)CNc1nccc(-c2cn(C(C)C)nc2-c2cc(Cl)cc(NS(C)(=O)=O)c2F)n1 [encorafenib]										1230 nM	4.6 nM	around 0.1	around 0.3	> 10000 nM	1580 nM	around 0.3

Source: patent US20250108051A1, “THERAPEUTIC AGENT FOR CANCER” (TOHOKU UNIVERSITY, priority 2022, published 2025)
